Test [1] has as its system K562 cells. The test can be described thus: Cell uptake by K562 cells, flow cytometry (Mean Fluorescence Intensity). The note with it: for cell uptake as judged by the mean of fluorescence intensity: 37° C. In kind it is cell-based. On the procedure: Cell association was measured by flow cytometry using a FACScan (Becton Dickinson, USA). Free or vectorised compounds were incubated with K562 cells (5×10^5 cells per ml) in Optimem medium at 37° C. for various periods of time.
Thereafter, the cells were washed twice and then resuspended in 0.5 ml of ice-cold PBS for FACS analysis. Cell-associated fluorophores were excited at 488 nm and fluorescence was measured at 525 nm. A histogram of fluorescence intensity per cell (1×10^4) was obtained and the calculated mean of this distribution (Mean Fluorescence Intensity) was considered as representative of the amount of cell-associated peptide
Flu NP epitope was conjugated to SynB3 and SynB4 vectors. First, we compared the cell uptake of free and conjugated flu NP. Flu NP epitope was conjugated to SynB3 and SynB4 vectors and labelled with a fluorescent group (NBD). The compounds were incubated with K562 cells for various times and the cell uptake was measured using flow cytometry.
We also coupled rDPV protein with SynB3 and SynB4 vectors. The coupling procedure is described in the Protocols. First, we compared the cell uptake of free and coupled rDPV. The rDPV was labelled with a fluorescent group (NBD) in order to measure its uptake. The compounds were incubated with K562 cells for various times and the cell uptake was measured using flow cytometry.
Background: In flow cytometry, cells or beads pass a laser one at a time.

For test [2], the system named is Balb/c mice. Briefly: Immunization with flu NP peptide, CTL responses by 51Cr release assay. Particulars: FIG. 2; for specific CTL responses: intradermal, 25 μg flu NP peptide equivalent, spleens after three weeks; for mice eliciting CTL responses: three mice per group. In kind it is in vivo.
The subject of test [3] is C57B1/6/c mice. The test can be described thus: Immunization with rDPV protein, DPV specific CTL responses by 51Cr release assay. In kind it is in vivo. Particulars: 5 μg intradermal on day 0 and day 21, spleens day 42, FIG. 4, effective response defined as >10% specific lysis.
Setting [4] is: NBD-labelled free or conjugated flu NP, FIG. 1.
The mark [5] stands for this setting: NBD-labelled free or coupled rDPV, FIG. 3.

The source of these data is patent US7314626B2, “Use of peptide vectors to improve the immune response to antigens” (SYNT:EM S.A., priority 2001, dated 2008).

For the substance “AWSFRVSYRGISYRRSR-TYQRTRALV (SEQ ID NO:21) (AWSFRVSYRGISYRRSRTYQRTRALV) [SynB4/flu NP]”, in test [1] (setting [4]), the “cell uptake as judged by the mean of fluorescence intensity” value (from here on “cell uptake as judged by the mean”) is listed as “increased significantly”. The “cell uptake higher than the one observed for free flu NP” value in test [1] (at 45 min) is “about 5 fold”. Further, in test [2], the “specific CTL responses” value is listed as “elicited specific CTL responses” and the “mice eliciting CTL responses” value was “all mice”.

Consider “AWSFRVSYRGISYRRSR-rDPV ((SEQ ID NO:18)-rDPV) [SynB4/rDPV]”, for which the “time at which cell uptake reached saturation” value in test [1] (FIG. 3) is on record as 100 min. Moreover, the “cell uptake as judged by the mean” value in test [1] (setting [5]) is reported as “increased significantly”; in test [1] (NBD-labelled free or coupled rDPV, FIG. 3, listed as rDPV-SynB4) it was “slightly better than SynB3”. Moreover, the “mean CTL response” value in test [3] is “strong CTL responses”.

Take “RRLSYSRRRF-TYQRTRALV (SEQ ID NO:22) (RRLSYSRRRFTYQRTRALV) [SynB3/flu NP]”: the “cell uptake as judged by the mean” value in test [1] (setting [4]) was “increased significantly”. For the same substance, in test [2], the “specific CTL responses” value was “elicited specific CTL responses” and the “mice eliciting CTL responses” value was “all mice”.

Take “RRLSYSRRRF-rDPV ((SEQ ID NO:11)-rDPV) [SynB3/rDPV]”: the “time at which cell uptake reached saturation” value in test [1] (FIG. 3) stood at 30 min. Besides, in test [1] (setting [5]), the “cell uptake as judged by the mean” value was “increased significantly”. The “mean CTL response” value in test [3] is “strong CTL responses”.

As for “TYQRTRALV (SEQ ID NO:20) [flu NP, reference compound]”, the “cell uptake as judged by the mean” value in test [1] (setting [4]) is listed as “very low uptake”. Also, the “specific CTL responses” value in test [2] is “failed to elicit specific CTL responses”.
